Literature values in US7196180B2, “Functionalized derivatives of hyaluronic acid, formation of hydrogels in situ using same, and methods for making and using same” (Orthogene LLC, priority 1998, dated 2007).

In the case of `NCCCCN` [putrescine], the pKa is listed as over 9.
